Measured values as given in ChEMBL document CHEMBL1201862, “PubChem BioAssay data set” (2004).
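Five compound concentrations were applied to cells in 96-well plates for 48 hours; endpoints were derived by simple linear interpolation of the resulting dose-response curve. GI50 is the concentration that inhibits growth by half.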 The source made the active and inactive calls. Cut-off read from the data, not from the text of the source: active = GI50 up to about 1.1 µM and inactive = higher.

How the values were obtained:
Experiment in all cases: NCI-60 cell line screen, 48 h
NCI-H522 = system: NCI-H522
UO-31 = system: UO-31
SNB-75 = system: SNB-75
MCF7 = system: MCF7
CCRF-CEM = system: CCRF-CEM
SF-268 = system: SF-268
IGROV-1 = system: IGROV-1
SK-MEL-28 = system: SK-MEL-28
NCI/ADR-RES = system: NCI/ADR-RES
RXF 393 = system: RXF 393
K562 = system: K562
NCI-H226 = system: NCI-H226
OVCAR-3 = system: OVCAR-3
HOP-92 = system: HOP-92
LOX IMVI = system: LOX IMVI
786-0 = system: 786-0
CAKI-1 = system: CAKI-1
EKVX = system: EKVX
A549 = system: A549
BT-549 = system: BT-549

CCCCC(=O)OC[n+]1ccc2c(C)c3[nH]c4ccccc4c3c(C)c2c1
GI50 (NCI-H522): 0.773 µM (active)
GI50 (UO-31): 0.701 µM (active)
GI50 (SNB-75): 1.28 µM (inactive)
GI50 (MCF7): 0.18 µM (active)
GI50 (CCRF-CEM): 0.0432 µM (active)
GI50 (SF-268): 0.46 µM (active)
GI50 (IGROV-1): 0.502 µM (active)
GI50 (SK-MEL-28): 1.32 µM (inactive)
GI50 (NCI/ADR-RES): 0.526 µM (active)
GI50 (RXF 393): 0.297 µM (active)
GI50 (K562): 0.186 µM (active)
GI50 (NCI-H226): 0.475 µM (active)
GI50 (OVCAR-3): 1.22 µM (inactive)
GI50 (HOP-92): 1.62 µM (inactive)
GI50 (LOX IMVI): 0.493 µM (active)
GI50 (786-0): 0.298 µM (active)
GI50 (CAKI-1): 1.25 µM (inactive)
GI50 (EKVX): 0.497 µM (active)
GI50 (A549): 0.267 µM (active)

COc1ccc(-c2nc3ncccn3c2-c2ccc(SC)cc2)cc1
GI50 (NCI-H522): 0.23 µM (active)
GI50 (UO-31): 4.46 µM (inactive)
GI50 (SNB-75): 5.96 µM (inactive)
GI50 (CCRF-CEM): 2.28 µM (inactive)
GI50 (SF-268): 0.418 µM (active)
GI50 (IGROV-1): 2.04 µM (inactive)
GI50 (SK-MEL-28): 16.9 µM (inactive)
GI50 (BT-549): 1.45 µM (inactive)
GI50 (NCI/ADR-RES): 1.46 µM (inactive)
GI50 (K562): 0.869 µM (active)
GI50 (OVCAR-3): 0.44 µM (active)
GI50 (HOP-92): 7.18 µM (inactive)
GI50 (LOX IMVI): 2.14 µM (inactive)
GI50 (786-0): 4.59 µM (inactive)
GI50 (CAKI-1): 0.74 µM (active)
GI50 (A549): 2.88 µM (inactive)

O=C(O)C1CC(C2CCCCN2)CN2CCCCC12 (stereo not drawn)
GI50 (UO-31): > 100 µM (inactive)
GI50 (SNB-75): > 100 µM (inactive)
GI50 (MCF7): > 100 µM (inactive)
GI50 (CCRF-CEM): > 100 µM (inactive)
GI50 (SF-268): > 100 µM (inactive)
GI50 (IGROV-1): > 100 µM (inactive)
GI50 (SK-MEL-28): > 100 µM (inactive)
GI50 (BT-549): > 100 µM (inactive)
GI50 (NCI/ADR-RES): > 100 µM (inactive)
GI50 (RXF 393): > 100 µM (inactive)
GI50 (K562): > 100 µM (inactive)
GI50 (NCI-H226): > 100 µM (inactive)
GI50 (OVCAR-3): > 100 µM (inactive)
GI50 (HOP-92): > 100 µM (inactive)
GI50 (LOX IMVI): > 100 µM (inactive)
GI50 (786-0): > 100 µM (inactive)
GI50 (CAKI-1): > 100 µM (inactive)
GI50 (EKVX): > 100 µM (inactive)
GI50 (A549): > 100 µM (inactive)

CC(C)C1OC(=O)/C=C/C=C/C=C/C=C/C=C/CC(O)CC(O)CC(O)CC(O)CC(O)CC(O)CC(O)CC(O)/C=C/C1C (stereo not drawn)
GI50 (UO-31): > 100 µM (inactive)
GI50 (SNB-75): > 100 µM (inactive)
GI50 (MCF7): > 100 µM (inactive)
GI50 (CCRF-CEM): > 100 µM (inactive)
GI50 (SF-268): > 100 µM (inactive)
GI50 (IGROV-1): > 100 µM (inactive)
GI50 (SK-MEL-28): > 100 µM (inactive)
GI50 (BT-549): > 100 µM (inactive)
GI50 (NCI/ADR-RES): > 100 µM (inactive)
GI50 (RXF 393): 73.8 µM (inactive)
GI50 (K562): > 100 µM (inactive)
GI50 (NCI-H226): > 100 µM (inactive)
GI50 (OVCAR-3): > 100 µM (inactive)
GI50 (HOP-92): > 100 µM (inactive)
GI50 (LOX IMVI): > 100 µM (inactive)
GI50 (786-0): > 100 µM (inactive)
GI50 (CAKI-1): > 100 µM (inactive)
GI50 (EKVX): > 100 µM (inactive)
GI50 (A549): > 100 µM (inactive)

CN(C(=O)c1ccc(Cl)cc1)C(=S)N1CCN(c2ccccc2)CC1
GI50 (NCI-H522): 51.5 µM (inactive)
GI50 (UO-31): 20.1 µM (inactive)
GI50 (SNB-75): 46.7 µM (inactive)
GI50 (MCF7): 78.9 µM (inactive)
GI50 (CCRF-CEM): 56.6 µM (inactive)
GI50 (SF-268): > 100 µM (inactive)
GI50 (IGROV-1): > 100 µM (inactive)
GI50 (SK-MEL-28): > 100 µM (inactive)
GI50 (BT-549): > 100 µM (inactive)
GI50 (RXF 393): > 100 µM (inactive)
GI50 (K562): 42.1 µM (inactive)
GI50 (NCI-H226): 47.5 µM (inactive)
GI50 (OVCAR-3): > 100 µM (inactive)
GI50 (HOP-92): 89.5 µM (inactive)
GI50 (LOX IMVI): > 100 µM (inactive)
GI50 (786-0): > 100 µM (inactive)
GI50 (A549): 89.1 µM (inactive)

COc1cccc2c1C(=O)c1c(O)c3c(c(O)c1C2=O)C[C@@](O)(C(C)=O)C[C@@H]3OC1OC(C)C(O)C(N)C1Br (stereo partly drawn)
GI50 (NCI-H522): 0.0652 µM (active)
GI50 (UO-31): 0.0953 µM (active)
GI50 (SNB-75): 0.0029 µM (active)
GI50 (MCF7): 0.00385 µM (active)
GI50 (CCRF-CEM): 0.00414 µM (active)
GI50 (SF-268): 0.101 µM (active)
GI50 (IGROV-1): 0.266 µM (active)
GI50 (SK-MEL-28): 0.318 µM (active)
GI50 (BT-549): 0.269 µM (active)
GI50 (RXF 393): 0.213 µM (active)
GI50 (K562): 0.0495 µM (active)
GI50 (NCI-H226): 0.0165 µM (active)
GI50 (OVCAR-3): 0.136 µM (active)
GI50 (HOP-92): 0.0486 µM (active)
GI50 (LOX IMVI): 0.0208 µM (active)
GI50 (786-0): 0.0404 µM (active)
GI50 (CAKI-1): 0.0139 µM (active)
GI50 (EKVX): 0.805 µM (active)
GI50 (A549): 0.0202 µM (active)

[N-]=[N+]=Nc1c([N+](=O)[O-])c(=O)n(-c2ccccc2)c2ccccc12
GI50 (NCI-H522): 25.8 µM (inactive)
GI50 (UO-31): 14.8 µM (inactive)
GI50 (SNB-75): 20.1 µM (inactive)
GI50 (MCF7): 20.7 µM (inactive)
GI50 (CCRF-CEM): 29.4 µM (inactive)
GI50 (SF-268): 22.5 µM (inactive)
GI50 (IGROV-1): 21.7 µM (inactive)
GI50 (SK-MEL-28): 26.5 µM (inactive)
GI50 (NCI/ADR-RES): 20.7 µM (inactive)
GI50 (RXF 393): 20 µM (inactive)
GI50 (K562): 22.5 µM (inactive)
GI50 (NCI-H226): 25.5 µM (inactive)
GI50 (OVCAR-3): 4.5 µM (inactive)
GI50 (HOP-92): 26.4 µM (inactive)
GI50 (LOX IMVI): 17.5 µM (inactive)
GI50 (786-0): 19.5 µM (inactive)
GI50 (CAKI-1): 21.5 µM (inactive)
GI50 (EKVX): 16.7 µM (inactive)
GI50 (A549): 38.7 µM (inactive)

O=C1C=C2CC[C@H]3[C@@H]4CC[C@H](Oc5c6ccccc6nc6ccccc56)[C@H]4CC[C@@H]3[C@H]2CC1
GI50 (SNB-75): 28.3 µM (inactive)
GI50 (CCRF-CEM): 18.5 µM (inactive)
GI50 (SF-268): 84.9 µM (inactive)
GI50 (IGROV-1): 31.9 µM (inactive)
GI50 (SK-MEL-28): 48.9 µM (inactive)
GI50 (BT-549): 20.3 µM (inactive)
GI50 (NCI/ADR-RES): 20.4 µM (inactive)
GI50 (RXF 393): 26.2 µM (inactive)
GI50 (K562): 32.7 µM (inactive)
GI50 (NCI-H226): 60.7 µM (inactive)
GI50 (OVCAR-3): 42.6 µM (inactive)
GI50 (HOP-92): 13.3 µM (inactive)
GI50 (LOX IMVI): 27.8 µM (inactive)
GI50 (786-0): 91.2 µM (inactive)
GI50 (CAKI-1): 36.7 µM (inactive)
GI50 (EKVX): 4.47 µM (inactive)
GI50 (A549): 54.1 µM (inactive)

COCCN(C(=O)c1ccccc1)C1CCC2(SCCS2)c2[nH]c3ccccc3c21 (stereo not drawn)
GI50 (NCI-H522): 23.3 µM (inactive)
GI50 (UO-31): 40.7 µM (inactive)
GI50 (SNB-75): 70.1 µM (inactive)
GI50 (MCF7): 37.5 µM (inactive)
GI50 (CCRF-CEM): 29.8 µM (inactive)
GI50 (SF-268): > 100 µM (inactive)
GI50 (IGROV-1): 34.5 µM (inactive)
GI50 (SK-MEL-28): 74 µM (inactive)
GI50 (NCI/ADR-RES): 30.2 µM (inactive)
GI50 (RXF 393): 20.7 µM (inactive)
GI50 (K562): 15.9 µM (inactive)
GI50 (NCI-H226): > 100 µM (inactive)
GI50 (OVCAR-3): 51.2 µM (inactive)
GI50 (HOP-92): 20.1 µM (inactive)
GI50 (LOX IMVI): 57.7 µM (inactive)
GI50 (786-0): 60.8 µM (inactive)
GI50 (CAKI-1): 79.6 µM (inactive)
GI50 (EKVX): 30.3 µM (inactive)
GI50 (A549): 26.2 µM (inactive)

CC(C)(C)n1c(=O)[nH]n(C2NN=Cc3cccc4cccc2c34)c1=O (stereo not drawn)
GI50 (UO-31): 14.1 µM (inactive)
GI50 (SNB-75): 21.9 µM (inactive)
GI50 (MCF7): 30.6 µM (inactive)
GI50 (CCRF-CEM): 11.5 µM (inactive)
GI50 (SF-268): 26.1 µM (inactive)
GI50 (SK-MEL-28): 57.3 µM (inactive)
GI50 (BT-549): 21.9 µM (inactive)
GI50 (NCI/ADR-RES): 32.8 µM (inactive)
GI50 (RXF 393): 10.9 µM (inactive)
GI50 (K562): 17.9 µM (inactive)
GI50 (NCI-H226): 23.2 µM (inactive)
GI50 (OVCAR-3): 51.9 µM (inactive)
GI50 (LOX IMVI): 26.9 µM (inactive)
GI50 (786-0): 57.1 µM (inactive)
GI50 (CAKI-1): 27.5 µM (inactive)
GI50 (EKVX): 15.4 µM (inactive)
GI50 (A549): 18.7 µM (inactive)

CCOC(=O)Nc1nn(C)/c(=N/Cc2ccccc2)s1
GI50 (NCI-H522): 86.3 µM (inactive)
GI50 (UO-31): 33.4 µM (inactive)
GI50 (SNB-75): > 100 µM (inactive)
GI50 (MCF7): > 100 µM (inactive)
GI50 (CCRF-CEM): > 100 µM (inactive)
GI50 (IGROV-1): > 100 µM (inactive)
GI50 (SK-MEL-28): > 100 µM (inactive)
GI50 (BT-549): 85.1 µM (inactive)
GI50 (RXF 393): > 100 µM (inactive)
GI50 (K562): > 100 µM (inactive)
GI50 (OVCAR-3): > 100 µM (inactive)
GI50 (HOP-92): > 100 µM (inactive)
GI50 (LOX IMVI): > 100 µM (inactive)
GI50 (786-0): > 100 µM (inactive)
GI50 (CAKI-1): > 100 µM (inactive)
GI50 (EKVX): > 100 µM (inactive)
GI50 (A549): > 100 µM (inactive)
